ChEMBL document CHEMBL1201862, “PubChem BioAssay data set” (2004)
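In this assay, cells in 96-well plates receive the compound at five concentrations for 48 hours. Endpoints are linearly interpolated between the surrounding concentrations. GI50 = concentration required for 50% inhibition of growth.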 The source made the active and inactive calls. Cut-off read from the data, not from the text of the source: active = GI50 up to about 1.1 µM and inactive = higher.

Assays:
Assay in all cases: DTP human tumour cell line panel, 48 h
T47D = system: T47D
HOP-62 = system: HOP-62
A498 = system: A498
K562 = system: K562
M14 = system: M14
SR = system: SR
PC-3 = system: PC-3
IGROV-1 = system: IGROV-1
SK-MEL-28 = system: SK-MEL-28
MDA-MB-435 = system: MDA-MB-435
SNB-19 = system: SNB-19
SK-MEL-2 = system: SK-MEL-2
HOP-92 = system: HOP-92
OVCAR-5 = system: OVCAR-5
RPMI-8226 = system: RPMI-8226
OVCAR-4 = system: OVCAR-4
COLO 205 = system: COLO 205
SF-268 = system: SF-268
DU-145 = system: DU-145
SNB-75 = system: SNB-75
UACC-257 = system: UACC-257
TK-10 = system: TK-10
U-251 = system: U-251
SN12C = system: SN12C
OVCAR-8 = system: OVCAR-8
SW-620 = system: SW-620
OVCAR-3 = system: OVCAR-3
CCRF-CEM = system: CCRF-CEM
SF-539 = system: SF-539
NCI-H23 = system: NCI-H23
CAKI-1 = system: CAKI-1
MCF7 = system: MCF7
HCT-116 = system: HCT-116
786-0 = system: 786-0
SF-295 = system: SF-295
RXF 393 = system: RXF 393
LOX IMVI = system: LOX IMVI
HL-60 = system: HL-60
EKVX = system: EKVX
HCC 2998 = system: HCC 2998
ACHN = system: ACHN
Hs-578T = system: Hs-578T
HT-29 = system: HT-29
MDA-MB-231 = system: MDA-MB-231
UACC-62 = system: UACC-62
KM12 = system: KM12
SK-OV-3 = system: SK-OV-3
A549 = system: A549
UO-31 = system: UO-31
MOLT-4 = system: MOLT-4
NCI/ADR-RES = system: NCI/ADR-RES
NCI-H226 = system: NCI-H226
HCT-15 = system: HCT-15
NCI-H522 = system: NCI-H522
SK-MEL-5 = system: SK-MEL-5
Malme-3M = system: Malme-3M
NCI-H460 = system: NCI-H460

For `O=C1CC(c2cccc(Br)c2)n2cccc21` (stereo unspecified), the GI50 (T47D) was 63.4 µM (inactive), the GI50 (HOP-62) was > 100 µM (inactive) and the GI50 (A498) was > 100 µM (inactive). For the same compound, the GI50 (K562) was 72.3 µM (inactive), the GI50 (M14) was 80.7 µM (inactive) and the GI50 (SR) was 51.2 µM (inactive). The GI50 (PC-3) was 39.5 µM (inactive), the GI50 (IGROV-1) was 57.3 µM (inactive) and the GI50 (SK-MEL-28) was > 100 µM (inactive). The GI50 (MDA-MB-435) was > 100 µM (inactive), the GI50 (SNB-19) was > 100 µM (inactive) and the GI50 (SK-MEL-2) was 29 µM (inactive). For the same compound, the GI50 (HOP-92) was 81.3 µM (inactive), the GI50 (OVCAR-5) was > 100 µM (inactive) and the GI50 (RPMI-8226) was > 100 µM (inactive). The GI50 (OVCAR-4) was 88.9 µM (inactive), the GI50 (COLO 205) was > 100 µM (inactive) and the GI50 (SF-268) was 67.8 µM (inactive). For the same compound, the GI50 (DU-145) was > 100 µM (inactive), the GI50 (SNB-75) was 35.3 µM (inactive) and the GI50 (UACC-257) was > 100 µM (inactive). For the same compound, the GI50 (TK-10) was > 100 µM (inactive), the GI50 (U-251) was > 100 µM (inactive) and the GI50 (SN12C) was > 100 µM (inactive). The GI50 (OVCAR-8) was > 100 µM (inactive), the GI50 (SW-620) was > 100 µM (inactive) and the GI50 (OVCAR-3) was > 100 µM (inactive). The GI50 (CCRF-CEM) was > 100 µM (inactive), the GI50 (SF-539) was > 100 µM (inactive) and the GI50 (NCI-H23) was 63.5 µM (inactive). The GI50 (CAKI-1) was 44.6 µM (inactive), the GI50 (MCF7) was 86.9 µM (inactive) and the GI50 (HCT-116) was > 100 µM (inactive). For the same compound, the GI50 (786-0) was > 100 µM (inactive), the GI50 (SF-295) was > 100 µM (inactive) and the GI50 (RXF 393) was > 100 µM (inactive). For the same compound, the GI50 (LOX IMVI) was > 100 µM (inactive), the GI50 (HL-60) was 28.1 µM (inactive) and the GI50 (EKVX) was > 100 µM (inactive). The GI50 (HCC 2998) was 54.7 µM (inactive), the GI50 (ACHN) was 68.5 µM (inactive) and the GI50 (Hs-578T) was 28.2 µM (inactive). For the same compound, the GI50 (HT-29) was 93.1 µM (inactive), the GI50 (MDA-MB-231) was > 100 µM (inactive) and the GI50 (UACC-62) was > 100 µM (inactive). For the same compound, the GI50 (KM12) was 46.2 µM (inactive), the GI50 (SK-OV-3) was > 100 µM (inactive) and the GI50 (A549) was 62.1 µM (inactive). The GI50 (UO-31) was 21.5 µM (inactive), the GI50 (MOLT-4) was 40.1 µM (inactive) and the GI50 (NCI/ADR-RES) was > 100 µM (inactive). For the same compound, the GI50 (NCI-H226) was 92.9 µM (inactive), the GI50 (HCT-15) was 92.9 µM and the GI50 (NCI-H522) was 47.2 µM (inactive).

`OCCNC1=Nc2ccc(Cl)cc2C(=S)N2CSC[C@@H]12` was tested, and the GI50 (T47D) was > 100 µM (inactive), the GI50 (HOP-62) was > 100 µM (inactive) and the GI50 (A498) was > 100 µM (inactive). The GI50 (K562) was > 100 µM (inactive), the GI50 (SK-MEL-5) was > 100 µM (inactive) and the GI50 (M14) was > 100 µM (inactive). The GI50 (SR) was > 100 µM (inactive), the GI50 (PC-3) was > 100 µM (inactive) and the GI50 (SK-MEL-28) was > 100 µM (inactive). For the same compound, the GI50 (Malme-3M) was > 100 µM (inactive), the GI50 (MDA-MB-435) was > 100 µM (inactive) and the GI50 (SNB-19) was > 100 µM (inactive). For the same compound, the GI50 (SK-MEL-2) was > 100 µM (inactive), the GI50 (HOP-92) was > 100 µM (inactive) and the GI50 (OVCAR-5) was > 100 µM (inactive). For the same compound, the GI50 (RPMI-8226) was > 100 µM (inactive), the GI50 (OVCAR-4) was > 100 µM (inactive) and the GI50 (COLO 205) was > 100 µM (inactive). The GI50 (NCI-H460) was > 100 µM (inactive), the GI50 (SF-268) was > 100 µM (inactive) and the GI50 (DU-145) was > 100 µM (inactive). For the same compound, the GI50 (U-251) was > 100 µM (inactive), the GI50 (SN12C) was > 100 µM (inactive) and the GI50 (OVCAR-8) was > 100 µM (inactive). For the same compound, the GI50 (SW-620) was > 100 µM (inactive), the GI50 (OVCAR-3) was > 100 µM (inactive) and the GI50 (SF-539) was > 100 µM (inactive). For the same compound, the GI50 (NCI-H23) was > 100 µM (inactive), the GI50 (CAKI-1) was > 100 µM (inactive) and the GI50 (MCF7) was > 100 µM (inactive). For the same compound, the GI50 (HCT-116) was > 100 µM (inactive), the GI50 (786-0) was > 100 µM (inactive) and the GI50 (SF-295) was > 100 µM (inactive). For the same compound, the GI50 (RXF 393) was > 100 µM (inactive), the GI50 (HCC 2998) was > 100 µM (inactive) and the GI50 (ACHN) was > 100 µM (inactive). The GI50 (HT-29) was > 100 µM (inactive), the GI50 (MDA-MB-231) was > 100 µM (inactive) and the GI50 (UACC-62) was > 100 µM (inactive). For the same compound, the GI50 (KM12) was > 100 µM (inactive), the GI50 (SK-OV-3) was > 100 µM (inactive) and the GI50 (A549) was > 100 µM (inactive). The GI50 (UO-31) was > 100 µM (inactive), the GI50 (MOLT-4) was > 100 µM (inactive) and the GI50 (NCI/ADR-RES) was > 100 µM (inactive). The GI50 (HCT-15) was over 100 µM and the GI50 (NCI-H522) was > 100 µM (inactive).
